# Measurements taken from PubChem BioAssay (NCI).
# Where “and” joins values, the source holds several entries; their conditions need not be identical. Equal entries are not always repeated.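 Five concentrations, 48 hours, 96-well plates. GI50 is the concentration that inhibits growth by half. Definition used: TGI = concentration required for complete inhibition of growth.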
# Test system: SNB-75 CNS
# Test: NCI-60 cell line screen, 48 h
row,Compound,TGI [µM]
1,CCN(CC)CCCNC(=O)c1ccc([N+](=O)[O-])cc1O,> 100
2,Cc1cn([C@@H]2C[C@H](CO)[C@@H](O)C2)c(=O)[nH]c1=O,> 100
3,O=c1[nH]cnc(NC2C=C(CO)C(O)C2O)c1[N+](=O)[O-] (stereo not given),> 100
4,O=C1NCCS(=O)(=O)N[C@@H](CC2=CC=CCC2)C(=O)N2CCCC12 (stereo not given in full),> 100
5,COc1ccc(-c2oc(/C=N/NC(N)=S)c([N+](=O)[O-])c2-c2ccc(OC)c(OC)c2)cc1OC,72.3
6,COc1c(O)c2c3c(c(C)cc(O)c3c1O)C(=O)C(O)(C(C)(C)C(C)=O)C2=O (stereo not given),> 100
7,Nc1nc(N)c(N=O)c(Nc2ccc(Br)cc2)n1,40.3

# Test system: RXF-631 renal
# Test: NCI-60 cell line screen, 48 h
row,Compound,TGI [µM]
1,CCN(CC)CCCNC(=O)c1ccc([N+](=O)[O-])cc1O,> 100
2,Cc1cn([C@@H]2C[C@H](CO)[C@@H](O)C2)c(=O)[nH]c1=O,> 100
3,O=C1NCCS(=O)(=O)N[C@@H](CC2=CC=CCC2)C(=O)N2CCCC12 (stereo not given in full),> 100
4,COc1ccc(-c2oc(/C=N/NC(N)=S)c([N+](=O)[O-])c2-c2ccc(OC)c(OC)c2)cc1OC,> 100

# Test system: DMS 273 small cell lung
# Test: NCI-60 cell line screen, 48 h
row,Compound,TGI [µM]
1,CCN(CC)CCCNC(=O)c1ccc([N+](=O)[O-])cc1O,> 100
2,Cc1cn([C@@H]2C[C@H](CO)[C@@H](O)C2)c(=O)[nH]c1=O,> 100
3,O=c1[nH]cnc(NC2C=C(CO)C(O)C2O)c1[N+](=O)[O-] (stereo not given),> 66.1
4,O=C1NCCS(=O)(=O)N[C@@H](CC2=CC=CCC2)C(=O)N2CCCC12 (stereo not given in full),> 100
5,COc1c(O)c2c3c(c(C)cc(O)c3c1O)C(=O)C(O)(C(C)(C)C(C)=O)C2=O (stereo not given),> 100
6,Nc1nc(N)c(N=O)c(Nc2ccc(Br)cc2)n1,79.5

# Test system: LXFL 529 NSCLC
# Test: NCI-60 cell line screen, 48 h
row,Compound,TGI [µM]
1,CCN(CC)CCCNC(=O)c1ccc([N+](=O)[O-])cc1O,> 100
2,Cc1cn([C@@H]2C[C@H](CO)[C@@H](O)C2)c(=O)[nH]c1=O,> 100
3,O=c1[nH]cnc(NC2C=C(CO)C(O)C2O)c1[N+](=O)[O-] (stereo not given),> 100
4,O=C1NCCS(=O)(=O)N[C@@H](CC2=CC=CCC2)C(=O)N2CCCC12 (stereo not given in full),> 100
5,COc1ccc(-c2oc(/C=N/NC(N)=S)c([N+](=O)[O-])c2-c2ccc(OC)c(OC)c2)cc1OC,63.8
6,COc1c(O)c2c3c(c(C)cc(O)c3c1O)C(=O)C(O)(C(C)(C)C(C)=O)C2=O (stereo not given),> 100
7,Nc1nc(N)c(N=O)c(Nc2ccc(Br)cc2)n1,> 100

# Test system: CCRF-CEM leukemia
# Test: NCI-60 cell line screen, 48 h
row,Compound,TGI [µM]
1,CCN(CC)CCCNC(=O)c1ccc([N+](=O)[O-])cc1O,> 100
2,Cc1cn([C@@H]2C[C@H](CO)[C@@H](O)C2)c(=O)[nH]c1=O,> 100
3,O=c1[nH]cnc(NC2C=C(CO)C(O)C2O)c1[N+](=O)[O-] (stereo not given),> 100
4,O=C1NCCS(=O)(=O)N[C@@H](CC2=CC=CCC2)C(=O)N2CCCC12 (stereo not given in full),> 100
5,COc1c(O)c2c3c(c(C)cc(O)c3c1O)C(=O)C(O)(C(C)(C)C(C)=O)C2=O (stereo not given),> 100
6,Nc1nc(N)c(N=O)c(Nc2ccc(Br)cc2)n1,> 100

# Test system: M19-MEL melanoma
# Test: NCI-60 cell line screen, 48 h
row,Compound,TGI
1,Cc1cn([C@@H]2C[C@H](CO)[C@@H](O)C2)c(=O)[nH]c1=O,> 100 µM
2,O=c1[nH]cnc(NC2C=C(CO)C(O)C2O)c1[N+](=O)[O-] (stereo not given),> 100 µM
3,O=C1NCCS(=O)(=O)N[C@@H](CC2=CC=CCC2)C(=O)N2CCCC12 (stereo not given in full),> 100 µM
4,COc1ccc(-c2oc(/C=N/NC(N)=S)c([N+](=O)[O-])c2-c2ccc(OC)c(OC)c2)cc1OC,63.1 µM
5,COc1c(O)c2c3c(c(C)cc(O)c3c1O)C(=O)C(O)(C(C)(C)C(C)=O)C2=O (stereo not given),28.1 µM and 35.3 µM
6,Nc1nc(N)c(N=O)c(Nc2ccc(Br)cc2)n1,> 100 µM

# Test system: KM20L2 colon
# Test: NCI-60 cell line screen, 48 h
row,Compound,TGI [µM]
1,CCN(CC)CCCNC(=O)c1ccc([N+](=O)[O-])cc1O,> 100
2,Cc1cn([C@@H]2C[C@H](CO)[C@@H](O)C2)c(=O)[nH]c1=O,> 100
3,O=c1[nH]cnc(NC2C=C(CO)C(O)C2O)c1[N+](=O)[O-] (stereo not given),> 100
4,O=C1NCCS(=O)(=O)N[C@@H](CC2=CC=CCC2)C(=O)N2CCCC12 (stereo not given in full),> 100
5,COc1ccc(-c2oc(/C=N/NC(N)=S)c([N+](=O)[O-])c2-c2ccc(OC)c(OC)c2)cc1OC,92.4
6,COc1c(O)c2c3c(c(C)cc(O)c3c1O)C(=O)C(O)(C(C)(C)C(C)=O)C2=O (stereo not given),> 100
7,Nc1nc(N)c(N=O)c(Nc2ccc(Br)cc2)n1,95.7

# Test system: DMS 114 small cell lung
# Test: NCI-60 cell line screen, 48 h
Compound,TGI,GI50
CCN(CC)CCCNC(=O)c1ccc([N+](=O)[O-])cc1O,> 100 µM,–
Cc1cn([C@@H]2C[C@H](CO)[C@@H](O)C2)c(=O)[nH]c1=O,> 100 µM,–
O=c1[nH]cnc(NC2C=C(CO)C(O)C2O)c1[N+](=O)[O-] (stereo not given),> 84.7 µM,–
O=C1NCCS(=O)(=O)N[C@@H](CC2=CC=CCC2)C(=O)N2CCCC12 (stereo not given in full),> 100 µM,–
COc1ccc(-c2oc(/C=N/NC(N)=S)c([N+](=O)[O-])c2-c2ccc(OC)c(OC)c2)cc1OC,46.8 µM,–
COc1c(O)c2c3c(c(C)cc(O)c3c1O)C(=O)C(O)(C(C)(C)C(C)=O)C2=O (stereo not given),28.2 µM and > 100 µM,13.3 µM and 55.3 µM
Nc1nc(N)c(N=O)c(Nc2ccc(Br)cc2)n1,52.1 µM,–

# Test system: COLO 205 colon
# Test: NCI-60 cell line screen, 48 h
row,Compound,TGI [µM]
1,CCN(CC)CCCNC(=O)c1ccc([N+](=O)[O-])cc1O,> 100
2,Cc1cn([C@@H]2C[C@H](CO)[C@@H](O)C2)c(=O)[nH]c1=O,> 100
3,O=c1[nH]cnc(NC2C=C(CO)C(O)C2O)c1[N+](=O)[O-] (stereo not given),> 100
4,O=C1NCCS(=O)(=O)N[C@@H](CC2=CC=CCC2)C(=O)N2CCCC12 (stereo not given in full),> 100
